≈ marks a conversion by molar mass, not a printed value.
System: Entamoeba histolytica
Assay: Minimum inhibitory concentration against Entamoeba histolytica
Assay type: cell-based
Conditions: Table II

Compound | Minimum Inhibitory Concentration (MIC) in μg./ml. Against Entamoeba hist. [µg/mL]
Mixture of 5-Methyl-4-(1-methyl-5-nitro-2-imidazolyl)-isoxazole and 3-Methyl-4-(1-methyl-5-nitro-2-imidazolyl)-isoxazole | 50
Mixture of 1,3-Dimethyl-4-(1-methyl-5-nitro-2-imidazolyl)-pyrazole and 1,5-Dimethyl-4-(1-methyl-5-nitro-2-imidazolyl)-pyrazole | 12.5

Same assay, conditions: Table II, read-out: Minimum Inhibitory Concentration (MIC) in μg./ml. Against Entamoeba hist.

Compound | MIC [µg/mL]
Cc1ncc([N+](=O)[O-])n1CCO [Metronidazole, 5-nitro-2-methyl-1-(2-hydroxyethyl)-imidazole, reference compound] | > 100
Cc1nn([N+](=O)[O-])cc1-c1ncc([N+](=O)[O-])n1C [3-Methyl-4-(1-methyl-5-nitro-2-imidazolyl)-1-nitropyrazole] | 25 (≈ 99.1 µM)

Next, values leading:

MIC [µg/mL] | Compound
12.5 (≈ 44.1 µM) | Cc1c(-c2ncc([N+](=O)[O-])n2C)cnn1-c1ccccc1 [5-Methyl-4-(1-methyl-5-nitro-2-imidazolyl)-1-phenylpyrazole]
50 (≈ 199 µM) | Cc1c(-c2ncc([N+](=O)[O-])n2C)cnn1CCO [2-[5-Methyl-4-(1-methyl-5-nitro-2-imidazolyl)-pyrazolyl]-ethanol]
12.5 (≈ 60.3 µM) | Cc1[nH]ncc1-c1ncc([N+](=O)[O-])n1C [3(5)-Methyl-4-(1-methyl-5-nitro-2-imidazolyl)-pyrazole]

System: Trichomonas vaginalis
Assay: not given
Conditions: literature: C. Cosar, Arzneimittelforschung 16, 23 (1966); French Pat. No. 1,212,028; cited from earlier work

Compound | effective against Trichomonas vaginalis
Cc1ncc([N+](=O)[O-])n1CCO [Metronidazole, 5-nitro-2-methyl-1-(2-hydroxyethyl)-imidazole, reference compound] | effective

System: Trichomonas vaginalis
Assay: Minimum inhibitory concentration against Trichomonas vaginalis
Assay type: cell-based
Conditions: Table I, read-out: Minimum Inhibitory Concentration (MIC) in μg./ml. Against Trich. vag.

Compound | MIC [µg/mL]
Cc1ncc([N+](=O)[O-])n1CCO [Metronidazole, 5-nitro-2-methyl-1-(2-hydroxyethyl)-imidazole, reference compound] | 1.6 (≈ 9.35 µM)
CN(C)C=CC(=O)c1ncc([N+](=O)[O-])n1C [3-Dimethylamino-1-(1-methyl-5-nitro-2-imidazolyl)-2-propenone] | 0.1 (≈ 0.446 µM)
Cn1nccc1-c1ncc([N+](=O)[O-])n1C [1-Methyl-5-(1-methyl-5-nitro-2-imidazolyl)-pyrazole] | 0.05 (≈ 0.241 µM)
Cn1c([N+](=O)[O-])cnc1-c1cc[nH]n1 [3-(1-Methyl-5-nitro-2-imidazolyl)-pyrazole] | 0.1 (≈ 0.518 µM)

Same assay, conditions: Table II

Compound | Minimum Inhibitory Concentration (MIC) in μg./ml. Against Trich vag. [µg/mL]
Mixture of 5-Methyl-4-(1-methyl-5-nitro-2-imidazolyl)-isoxazole and 3-Methyl-4-(1-methyl-5-nitro-2-imidazolyl)-isoxazole | 0.2
Mixture of 1,3-Dimethyl-4-(1-methyl-5-nitro-2-imidazolyl)-pyrazole and 1,5-Dimethyl-4-(1-methyl-5-nitro-2-imidazolyl)-pyrazole | 0.1

Same assay, conditions: Table II, read-out: Minimum Inhibitory Concentration (MIC) in μg./ml. Against Trich vag.

Compound | MIC [µg/mL]
Cc1nc(N)ncc1-c1ncc([N+](=O)[O-])n1C [4-Methyl-5-(1-methyl-5-nitro-2-imidazolyl)-pyrimidine-2-amine] | 0.1 (≈ 0.427 µM)
Cc1ncc([N+](=O)[O-])n1CCO [Metronidazole, 5-nitro-2-methyl-1-(2-hydroxyethyl)-imidazole, reference compound] | 1.6 (≈ 9.35 µM)
Cc1nn([N+](=O)[O-])cc1-c1ncc([N+](=O)[O-])n1C [3-Methyl-4-(1-methyl-5-nitro-2-imidazolyl)-1-nitropyrazole] | 0.4 (≈ 1.59 µM)
Cc1c(-c2ncc([N+](=O)[O-])n2C)cnn1-c1ccc([N+](=O)[O-])cc1 [5-Methyl-4-(1-methyl-5-nitro-2-imidazolyl)-1-(4-nitrophenyl)-pyrazole] | 0.4 (≈ 1.22 µM)

Further lines, results first:

MIC [µg/mL] | Compound
0.4 (≈ 1.4 µM) | Cc1nc(-c2ccco2)ncc1-c1ncc([N+](=O)[O-])n1C [2-(2-Furyl)-4-methyl-5-(1-methyl-5-nitro-2-imidazolyl)-pyrimidine]
0.1 (≈ 0.353 µM) | Cc1c(-c2ncc([N+](=O)[O-])n2C)cnn1-c1ccccc1 [5-Methyl-4-(1-methyl-5-nitro-2-imidazolyl)-1-phenylpyrazole]
0.2 (≈ 0.796 µM) | Cc1c(-c2ncc([N+](=O)[O-])n2C)cnn1CCO [2-[5-Methyl-4-(1-methyl-5-nitro-2-imidazolyl)-pyrazolyl]-ethanol]
0.2 (≈ 0.638 µM) | COc1ccc(-n2ncc(-c3ncc([N+](=O)[O-])n3C)c2C)cc1 [1-p-Anisyl-5-methyl-4-(1-methyl-5-nitro-2-imidazolyl)-pyrazole]
0.2 (≈ 0.629 µM) | Cc1c(-c2ncc([N+](=O)[O-])n2C)cnn1-c1ccc(Cl)cc1 [1-(4-Chlorophenyl)-5-methyl-4-(1-methyl-5-nitro-2-imidazolyl)-pyrazole]
0.2 (≈ 0.965 µM) | Cc1[nH]ncc1-c1ncc([N+](=O)[O-])n1C [3(5)-Methyl-4-(1-methyl-5-nitro-2-imidazolyl)-pyrazole]
